Measurements published in PubChem BioAssay AID1963986 (Molecular Pharmacology Branch, DTP, NCI, 2024).

Test system: 171881-019-R-J1-PDC tumor spheroid viability
Assay: Anticancer human tumor 171881-019-R-J1-PDC patient-derived invasive breast carcinoma cell line growth inhibition [PI3K]
Conditions: spheroids with HUVEC and MSC; for IC50: curve of first compound; for viability, T/C: stronger effect = lower value
In short: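 Tumor cells were combined with HUVEC and MSCs into spheroids, then dosed with PI3K-inhibitor combinations over half-log ranges capped near clinical Cmax or 10 microM.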
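Further: spheroids exposed to compound for 7 days before viability read.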
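Wherever viability, T/C is given: 100% = DMSO vehicle-treated spheroids.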

SMILES: CC1(C)CCC(CN2CCN(c3ccc(C(=O)NS(=O)(=O)c4ccc(NCC5CCOCC5)c([N+](=O)[O-])c4)c(Oc4cnc5[nH]ccc5c4)c3)CC2)=C(c2ccc(Cl)cc2)C1 + COc1c(OCCCN2CCOCC2)ccc2c3n(c(=NC(=O)c4cnc(N)nc4)nc12)CCN3
- IC50 (second compound 0.00316 µM): > 10000 nM
- IC50 (second compound 0.01 µM): 1070 nM
- IC50 (second compound 0.0316 µM): < 31.6 nM
- IC50 (second compound 0.1 µM): < 31.6 nM
- IC50 (second compound 0.316 µM): < 31.6 nM
- IC50 (second compound 1 µM): < 31.6 nM
- viability, T/C (second compound 0.00316 µM, first compound 0.0316 µM): 67.9%
- viability, T/C (second compound 0.00316 µM, first compound 0.1 µM): 71.5%
- viability, T/C (second compound 0.00316 µM, first compound 0.316 µM): 76.5%
- viability, T/C (second compound 0.00316 µM, first compound 1 µM): 75.8%
- viability, T/C (second compound 0.00316 µM, first compound 3.16 µM): 50.7%
- viability, T/C (second compound 0.00316 µM, first compound 10 µM): 56.9%
- viability, T/C (second compound 0.01 µM, first compound 0.0316 µM): 50.3%
- viability, T/C (second compound 0.01 µM, first compound 0.1 µM): 54.2%
- viability, T/C (second compound 0.01 µM, first compound 0.316 µM): 52.1%
- viability, T/C (second compound 0.01 µM, first compound 1 µM): 50.6%
- viability, T/C (second compound 0.01 µM, first compound 3.16 µM): 36.4%
- viability, T/C (second compound 0.01 µM, first compound 10 µM): 46.5%
- viability, T/C (second compound 0.0316 µM, first compound 0.0316 µM): 31.2%
- viability, T/C (second compound 0.0316 µM, first compound 0.1 µM): 27.1%
- viability, T/C (second compound 0.0316 µM, first compound 0.316 µM): 26.7%
- viability, T/C (second compound 0.0316 µM, first compound 1 µM): 31.9%
- viability, T/C (second compound 0.0316 µM, first compound 3.16 µM): 27.6%
- viability, T/C (second compound 0.0316 µM, first compound 10 µM): 27.7%
- viability, T/C (second compound 0.1 µM, first compound 0.0316 µM): 9.62%
- viability, T/C (second compound 0.1 µM, first compound 0.1 µM): 8.56%
- viability, T/C (second compound 0.1 µM, first compound 0.316 µM): 8.91%
- viability, T/C (second compound 0.1 µM, first compound 1 µM): 8.46%
- viability, T/C (second compound 0.1 µM, first compound 3.16 µM): 8.91%
- viability, T/C (second compound 0.1 µM, first compound 10 µM): 7.62%
- viability, T/C (second compound 0.316 µM, first compound 0.0316 µM): 2.51%
- viability, T/C (second compound 0.316 µM, first compound 0.1 µM): 1.88%
- viability, T/C (second compound 0.316 µM, first compound 0.316 µM): 2.5%
- viability, T/C (second compound 0.316 µM, first compound 1 µM): 2.1%
- viability, T/C (second compound 0.316 µM, first compound 3.16 µM): 1.72%
- viability, T/C (second compound 0.316 µM, first compound 10 µM): 1.63%
- viability, T/C (second compound 1 µM, first compound 0.0316 µM): 1.35%
- viability, T/C (second compound 1 µM, first compound 0.1 µM): 0.89%
- viability, T/C (second compound 1 µM, first compound 0.316 µM): 1.13%
- viability, T/C (second compound 1 µM, first compound 1 µM): 0.95%
- viability, T/C (second compound 1 µM, first compound 3.16 µM): 1.02%
- viability, T/C (second compound 1 µM, first compound 10 µM): 0.92%
